pIC50: −log10 of the molar value.
Legend:
[1] = test system: human T-cell leukemia cell line Jurkat cell; assay: Growth of Jurkat cells, live cell count by trypan blue staining; format: cell-based; settings: for growth inhibitory activity of isolated components on Jurkat cells: 10, 25 and 50 μM, cells counted after 24, 48, 72 hours (FIG. 7); for pIC50: Homo sapiens, Jurkat, isolated components, FIG. 7, read-out: IC50 in the inhibition of the growth of the Jurkat cells
Description: A human T-cell leukemia cell line Jurkat cell was obtained from the Independent Administrative Institution RIKEN BioResource Center (Tsukuba-shi, Ibaraki-ken). The cell was cultured in a RPMI 1640 medium (Wako Pure Chemical Industries, Ltd., Osaka-shi, Osaka-fu) containing 10% fetal bovine serum (Thermo Fisher Scientifics, K.K., MA, USA), 100 U/mL penicillin, and 100 μg/mL streptomycin (both from Life Technologies, Carlsbad, Calif., USA) at 37° C. in an environment of 95% air and 5% CO2.
The Jurkat cells were adjusted to 1×10^5 cells/mL and seeded in a 24-well multi-well plate (Thermo Fisher Scientifics, K.K.) by 500 μL per well. […] At 24, 48, and 72 hours after the sample treatment, the cells were stained with trypan blue (Life Technologies) to count live cells using a hemacytometer.
These components were examined for the growth inhibitory effect on the Jurkat cells. The Jurkat cells were treated with each component at final concentrations of 10, 25, and 50 μM and the number of cells was counted after 24, 48, and 72 hours.

[2] = test system: Cyclin A; assay: Western blot of Cyclin A protein expression in Jurkat cells in S phase; format: cell-based, human; settings: Phytol(+) vs Phytol(−), n=5, p<0.01 (FIG. 9)
Source text: Next, the growth inhibition of the Jurkat cells caused by phytol and lutein was further investigated. As shown in FIG. 6 and FIG. 7, the growth inhibition of the Jurkat cells was caused by the induction of the cell cycle arrest in the S phase during cell division. Thus, it was further investigated how phytol induced the cell cycle arrest in the S phase. Specifically, protein expression of a molecule that controls the S phase of the cell cycle was examined by a Western blot method. […] Results of Cyclin A and β-Actin are shown with a phytol treatment (Phytol(+)) and without a phytol treatment (Phytol(−)). Further, in FIG. 9(b), the result of the Western blot shown in FIG. 9(a) was subjected to background correction using an image analysis software imageJ and then subjected to a densitometry analysis to obtain a ratio of a band density of Cyclin A relative to that of β-Actin. In evaluating data, a value of Phytol(+) was calculated by taking a value of Phytol(−) as 1 and represented as a mean±standard deviation (n=5). Comparison between Phytol(−) and Phytol(+) was tested by a Tukey-Kramer method (p<0.01).

[3] = test system: human normal lymphoid cell; assay: Effect on growth of human normal lymphoid cell (trypan blue count); format: cell-based; settings: stated with reference to FIG. 8

Structure (SMILES) | growth inhibitory activity of isolated components on Jurkat cells [1] | pIC50 [1] | expression of Cyclin A (band relative to β-Actin) [2] | growth inhibitory effect on the normal cell [3]
CC(C)C/C=C/[C@@H](C)[C@H]1CC[C@H]2[C@@H]3CC=C4C[C@@H](O)CC[C@]4(C)[C@H]3CC[C@]12C [22-dehydrocholesterol] | hardly inhibited the growth of the Jurkat cells | – | – | –
CC1=C[C@H](O)CC(C)(C)[C@H]1/C=C/C(C)=C/C=C/C(C)=C/C=C/C=C(C)/C=C/C=C(C)/C=C/C1=C(C)C[C@@H](O)CC1(C)C [lutein] | significant growth inhibitory activity | 4.65 | – | –
C/C(=C\CO)CCC[C@H](C)CCC[C@H](C)CCCC(C)C [phytol, Phytol] | significant growth inhibitory activity | 4.89 | suppressed | does not exhibit the growth inhibitory effect
